According to patent US9351491B2, “Inhibition and dispersion of biofilms in plants with imidazole-triazole derivatives” (priority 2008, dated 2016):
Counter-ions that a name gives are not always drawn.

Columns and labels:
[1] = tested on: Xanthomonas strains Xcv 135; test: Crystal violet biofilm inhibition (attachment) assay on PVC microtiter wells; type: cell-based; conditions: 28° C., 6 hours, static
Protocol: A Standard Crystal Violet reporter assay is employed to assess the effect of compounds from the 2-amino on the formation of biofilms. Among others, the following strains are tested:
Bacteria are allowed to form biofilms in a multi-well plate in the absence or presence of one or more compounds. Planktonic (or free growing) bacteria are then removed, wells washed vigorously, and crystal violet added. Crystal violet stains the remaining bacteria which, following ethanol solubilization, is quantitated by spectrophotometry (A540). Time-dependent and concentration-dependent analysis of each compound are performed.
Biofilm formation on PVC microtiter wells was accomplished using Xanthomonas strains Xcv 135 (known to infect peppers and tomatoes) and Xcv 5 (known to infect tomatoes but not peppers) as models. The Starting Optical Density (OD at 600 nm) for biofilm attachment assay was 0.55, the temperature for this assay was 28° C., the duration of incubation was 6 hours under, and the assay was static.
Biofilm inhibition results are as follows for screens with Xcv 135. The Xcv 5 strain is tested in the same manner.

[2] = tested on: bacterial spot (caused by the bacterium Xanthomonas euvesicatoria) of pepper, copper-resistant strains; test: Field test in pepper plants inoculated with Xanthomonas euvesicatoria (bacterial spot); type: in vivo
Protocol: To test the effects of the triazole derivatives for plant biofilm inhibition activity, the compound of Formula (II)(a)(5)(D) was used as an exemplary compound (the “biofilm inhibitor/disperser” or “BFI” in the text hereinafter of Example 4).
The compound was evaluated under field conditions to determine whether it controls or enhances control of bacterial spot (caused by the bacterium Xanthomonas euvesicatoria) of pepper when applied alone or in tank-mixtures with a copper (Kocide 3000), an antibiotic (GWN-9350, gentamicin), or a putative plant defense activator (Prophyt). Tests were performed April-July 2008 at the North Carolina Agricultural Research Service Sandhills Research Station, Montgomery County.
EXPERIMENTAL DESIGN and TREATMENT APPLICATIONS: Each treatment consisted of two 7-plant rows running east-west replicated in a four-block completely randomized design. Each 7-plant row was 10.5 ft×2 ft. This area was used to calculate the quantity of spray material extrapolated for a per acre basis. Plants of bell pepper cultivar ‘X3R-Camelot’ were transplanted to the field on Apr. 24, 2008. On May 6, two plants in the south row of each plot of each treatment were inoculated with a suspension of copper-resistant strains of the bacterial pathogen. These plants were destined to serve as the inoculum source for each plot. Each of the spray test materials was mixed in 1.5 liters of water and applied using a backpack sprayer by making a single pass on each side of the plant row. Treatments were applied weekly starting immediately after the plants had been inoculated May 6 followed by 7 additional weekly sprays for a total of 8 applications through June 24.
DATA: Ratings of foliar disease were started May 22, when symptoms were observed on the inoculated plants and continued weekly through June 25. Disease was most severe on the inoculated plants and then spread to the non-inoculated plants. Data from these two groups (inoculated plants and the non-inoculated) were evaluated separately. The results are expressed as disease progress over time using the calculated Area Under the Disease Progress Curve (AUDPC). Two fruit harvests were done; July 1 and 8. Because there had been plant loss in some plots, the number of plants per plot was counted and yields (number of fruit and weight) were calculated and are reported on a per plant basis per treatment.

[3] = tested on: Candida albicans biofilms; test: Inhibition of C. albicans biofilm formation, crystal violet reporter assay; type: cell-based; conditions: 24 h, read-out: inhibition of C. albicans biofilm formation
Protocol: It was screened at 100 μM for its ability to inhibit to the formation of C. albicans biofilms using a crystal violet reporter assay. Briefly, biofilms were allowed to form for 24 hours in a 96-well microtiter plate in the absence or presence of 100 μM of the compound. The wells were subsequently washed thoroughly with water to remove free-floating and loosely adherent fungus, and then treated with crystal violet. Crystal violet stains the remaining surface attached fungus (i.e. the biofilm), which following solublization, can be quantified by spectrophotometry (A540).
Each member of the pilot library was assayed at 100 μM for its ability to inhibit the formation of C. albicans biofilms using the crystal violet reporter assay.
Procedure to Determine the Inhibitory Effect of Test Compounds on C. albicans, C. neoformans and a Mixed S. epidermidis/C. albicans Biofilm Formation:
Inhibition assays were performed by taking an overnight culture of yeast or yeast/bacteria strain and subculturing it at an OD600 of 0.05 into YPD (Yeast extract, peptone and dextrose (BD 242820)) media for the yeast alone or tryptic soy broth for the S. epidermidis/C. albicans. […] Biofilm inhibition was quantitated by measuring the OD540 of each well in which a negative control lane wherein no biofilm was formed served as a background and was subtracted out.

[4] = tested on: C. albicans; test: Growth curve / colony count analysis, C. albicans; type: cell-based, Candida albicans; conditions: 100 μM (data not shown)
[5] = two fruit harvests, per plant basis

Compound | % Inhibition at 20 μM (vs. Xcv 135) [1] [%] | Mean AUDPC for entire plot ([2]; foliar disease, 0-9 rating scale, AUDPC, entire plot, 8 weekly sprays) [a] | Mean AUDPC for inoculated plants ([2]; foliar disease, 0-9 rating scale, Area Under the Disease Progress Curve, inoculated bell pepper plants, 8 weekly sprays, rate/acre as in treatment line) [b] | Mean fruit yield (lb)/plant [2, 5] [b lb] | Mean number pepper fruit/plant [2, 5] [b] | inhibition at 100 µM [3] [%] | growth curves: anti-biofilm activity fungicidal or not [4]
C/C(=C\c1ccccc1)Cn1cc(CCCCCc2c[nH]c(N)n2)nn1 [Formula (II)(a)(5)(D), 4-{5-[1-(2-Methyl-3-phenyl-allyl)-1H-[1,2,3]triazol-4-yl]-pentyl}-1H-imidazol-2-ylamine hydrochloride] | 86 | 42 | 113 | 1.46 | 4.8 | 12 | non-fungicidal
C/C(=C\c1ccccc1)Cn1cc(CCCCCCc2c[nH]c(N)n2)nn1 [Formula (II)(a)(6)(D), 4-{6-[1-(2-Methyl-3-phenyl-allyl)-1H-[1,2,3]triazol-4-yl]-hexyl}-1H-imidazol-2-ylamine hydrochloride] | 85 | – | – | – | – | – | –
Nc1nc(CCc2cn(CCc3c[nH]c4ccccc34)nn2)c[nH]1 [Formula (II)(i)(a)(2)(J)] | 0 | – | – | – | – | – | –
